Test results as given in patent publication US9670206B2, “Pyrido[4,3-B]pyrazine-2-carboxamides as neurogenic agents for the treatment of neurodegenerative disorders” (Hoffmann-La Roche Inc., priority 2013, dated 2017).

tested on: human embryonic stem cell derived neural stem cells (NSCs); assay: Neural stem cell proliferation assay (neurogenesis assay, ATP levels by CellTiterGlo); type: cell-based; settings: 96 h, compound concentration at which 150% activity of control (100%) is reached, NSC proliferation, ATP readout after 4 days incubation
Method: Neural Stem Cell Proliferation Assay
Neurogenic properties of small molecules are determined based on the proliferation of human embryonic stem cell derived neural stem cells (NSCs) which were derived via a dual smad inhibition as previously described (Chambers, S. M., et al., Highly efficient neural conversion of human ES and iPS cells by dual inhibition of SMAD signaling, Nature biotechnology, 2009. 27(3): p. 275-80.) Compounds respond is measured by the increase in cells based on ATP levels (Promega:CellTiterGlo®) after an incubation period of 4 days. NSCs are thawed and expanded over 3 passages. On the 14th day, NSCs are seeded in Polyornithin/Laminin coated 384 well plates at a cell density of 21,000 cells/cm^2 in a media volume of 38 μl. 4 hours after cell seeding, compound solutions are added at a volume of 2 μl. Stock solutions of the compounds (water, 5% DMSO) are diluted to obtain a dose response (11 points, dilution factor is 2), ranging from 8 μM to 8 nM. Controls are run to consistently determine the neurogenic properties of the cells: Negative (neutral) control is cell culture Media (final DMSO concentration: 0.25%). Positive controls are: • 1. cell culture Media+100 ng/ml FGF2 (final DMSO concentration: 0.1%) • 2. cell culture Media+20 ng/ml EGF (final DMSO concentration: 0.1%) • 3. cell culture Media+100 ng/ml Wnt3a (final DMSO concentration: 0.1%) After 4 days incubation at 37° C., 5% CO2, the amount of ATP per well is quantified. The ATP concentration is proportional to the cell number. ATP is quantified by using the Promega CellTiterGlo® kit. The CellTiterGlo® reagents contain a cell lysis buffer, a thermo stable luciferase (UltraGlo™ recombinant luciferase), magnesium and luciferin. Luciferin reacts with ATP producing oxyluciferin, AMP and light. The luminescence signal is proportional to the ATP content. The value of negative (neutral) control is determined for each assay plate by taking the average of 16 negative control wells. The neurogenic compound response is calculated for each compound as (compound/Negative Control)*100. The values of EC150 from the dose response curve are determined for each test compound. The EC150 is the compound concentration at which 150% activity of control (100%) is reached.

| SMILES | EC (150% of control) |
| --- | --- |
| CC(NC(=O)c1cnc2cncc(-c3ccc(Cl)cc3)c2n1)C(C)(C)O (stereo not shown) [Example 5, 8-(4-Chlorophenyl)-N-(3-hydroxy-3-methylbutan-2-yl)pyrido[4,3-b]pyrazine-2-carboxamide] | 0.89 µM |
| Cc1cccc(-c2cncc3ncc(C(=O)NC(C)C(C)(C)O)nc23)n1 (stereo not shown) [Example 53, N-(3-Hydroxy-3-methylbutan-2-yl)-8-(6-methylpyridin-2-yl)pyrido[4,3-b]pyrazine-2-carboxamide] | 0.5 µM |
| NC(=O)c1cnc2cncc(-c3cccc(C(F)(F)F)c3)c2n1 [Example 26, 8-(3-(Trifluoromethyl)phenyl)pyrido[4,3-b]pyrazine-2-carboxamide] | 0.43 µM |
| O=C(c1cnc2cncc(-c3ccc(Cl)cc3F)c2n1)N1CCC(O)C1 (stereo not shown) [Example 38, (8-(4-Chloro-2-fluorophenyl)pyrido[4,3-b]pyrazin-2-yl)(3-hydroxypyrrolidin-1-yl)methanone] | 0.1 µM |
| O=C(c1cnc2cncc(-c3ccc(Cl)nc3)c2n1)N1CCC(O)C1 (stereo not shown) [Example 43, (8-(6-Chloropyridin-3-yl)pyrido[4,3-b]pyrazin-2-yl)(3-hydroxypyrrolidin-1-yl)methanone] | 0.03 µM |
| O=C(c1cnc2cncc(-c3ccc(C(F)(F)F)cc3F)c2n1)N1CCC(O)C1 (stereo not shown) [Example 45, (8-(2-Fluoro-4-(trifluoromethyl)phenyl)pyrido[4,3-b]pyrazin-2-yl)(3-hydroxypyrrolidin-1-yl)methanone] | 1.48 µM |
| O=C(c1cnc2cncc(-c3ccc(Cl)cc3)c2n1)N1CCOCC1 [Example 9, (8-(4-Chlorophenyl)pyrido[4,3-b]pyrazin-2-yl)(morpholino)methanone] | 0.65 µM |
| NC(=O)c1cnc2cncc(-c3ccc(C(F)(F)F)c(F)c3)c2n1 [Example 24, 8-(3-Fluoro-4-(trifluoromethyl)phenyl)pyrido[4,3-b]pyrazine-2-carboxamide] | 0.18 µM |
| O=C(c1cnc2cncc(-c3ccc(C(F)(F)F)cc3)c2n1)N1CCOCC1 [Example 10, Morpholino(8-(4-(trifluoromethyl)phenyl)pyrido[4,3-b]pyrazin-2-yl)methanone] | 2.96 µM |
| CC(NC(=O)c1cnc2cncc(-c3cc(F)c(F)c(F)c3)c2n1)C(C)(C)O (stereo not shown) [Example 47, N-(3-Hydroxy-3-methylbutan-2-yl)-8-(3,4,5-trifluorophenyl)pyrido[4,3-b]pyrazine-2-carboxamide] | 0.03 µM |
| O=C(c1cnc2cncc(-c3ccc(Cl)cc3Cl)c2n1)N1CCC(O)C1 (stereo not shown) [Example 39, (8-(2,4-Dichlorophenyl)pyrido[4,3-b]pyrazin-2-yl)(3-hydroxypyrrolidin-1-yl)methanone] | 0.11 µM |
| NC(=O)c1cnc2cncc(-c3ccc(F)cc3)c2n1 [Example 14, 8-(4-Fluorophenyl)pyrido[4,3-b]pyrazine-2-carboxamide] | 0.1 µM |
| NC(=O)c1cnc2cncc(-c3ccc(Cl)cc3Cl)c2n1 [Example 13, 8-(2,4-Dichlorophenyl)pyrido[4,3-b]pyrazine-2-carboxamide] | 0.28 µM |
| NC(=O)c1cnc2cncc(-c3ccccc3F)c2n1 [Example 16, 8-(2-Fluorophenyl)pyrido[4,3-b]pyrazine-2-carboxamide] | 0.06 µM |
| O=C(c1cnc2cncc(-c3ccc(C(F)(F)F)cc3)c2n1)N1CCC(O)C1 (stereo not shown) [Example 28, (3-Hydroxypyrrolidin-1-yl)(8-(4-(trifluoromethyl)phenyl)pyrido[4,3-b]pyrazin-2-yl)methanone] | 0.29 µM |
| NC(=O)c1cnc2cncc(-c3ccc(Cl)cc3F)c2n1 [Example 22, 8-(4-Chloro-2-fluorophenyl)pyrido[4,3-b]pyrazine-2-carboxamide] | 0.07 µM |
| Cn1nccc1-c1cncc2ncc(C(N)=O)nc12 [Example 50, 8-(1-Methyl-1H-pyrazol-5-yl)pyrido[4,3-b]pyrazine-2-carboxamide] | 0.02 µM |
| NC(=O)c1cnc2cncc(N3CCC(F)(F)CC3)c2n1 [Example 42, 8-(4,4-Difluoropiperidin-1-yl)pyrido[4,3-b]pyrazine-2-carboxamide] | 0.09 µM |
| NC(=O)c1cnc2cncc(-c3ccc(C(F)(F)F)cc3F)c2n1 [Example 17, 8-(2-Fluoro-4-(trifluoromethyl)phenyl)pyrido[4,3-b]pyrazine-2-carboxamide] | 0.08 µM |
| O=C(c1cnc2cncc(-c3cc(C(F)(F)F)ccc3F)c2n1)N1CCC(O)C1 (stereo not shown) [Example 40, (8-(2-Fluoro-5-(trifluoromethyl)phenyl)pyrido[4,3-b]pyrazin-2-yl)(3-hydroxypyrrolidin-1-yl)methanone] | 0.93 µM |
| NC(=O)c1cnc2cncc(C3=CCOCC3)c2n1 [Example 25, 8-(3,6-Dihydro-2H-pyran-4-yl)pyrido[4,3-b]pyrazine-2-carboxamide] | 0.66 µM |
| CC(C)(C)NC(=O)c1cnc2cncc(-c3ccc(C(F)(F)F)cc3)c2n1 [Example 35, N-tert-Butyl-8-(4-(trifluoromethyl)phenyl)pyrido[4,3-b]pyrazine-2-carboxamide] | 0.32 µM |
